# Results: ChEMBL document CHEMBL4311992, “Discovery of 3-(((9H-purin-6-yl)amino)methyl)-4,6-dimethylpyridin-2(1H)-one derivatives as novel tubulin polymerization inhibitors for treatment of cancer” (Eur J Med Chem, 2019)
# Key:
# [1] = target: Eukaryotic translation initiation factor 2-alpha kinase 1 (Homo sapiens) (UniProt Q9BQI3); assay: Inhibition of recombinant human HRI (140 to end residues) assessed as residual activity at 10 uM using RSRSRSRSRSRSRSR as substrate measured after 120 mins in presence of [gamma33P]ATP by scintillation counting method
# [2] = target: Protein kinase C beta type (Homo sapiens) (UniProt P05771); assay: Inhibition of recombinant human PKCbeta2 (2 to end residues) assessed as residual activity at 10 uM using histone H1 as substrate measured after 40 mins in presence of [gamma33P]ATP by scintillation counting method
# [3] = target: Serine/threonine-protein kinase 24 (Homo sapiens) (UniProt Q9Y6E0); assay: Inhibition of recombinant human MST3 (1 to 304 residues) assessed as residual activity at 10 uM using ERMRPRKRQGSVRRRV as substrate measured after 40 mins in presence of [gamma33P]ATP by scintillation counting method
# [4] = tested on: Receptor-type tyrosine-protein kinase FLT3 (Homo sapiens), P36888 [D835Y]; assay: Inhibition of recombinant human Flt3 D835Y mutant (564 to end residues) assessed as residual activity at 10 uM using EAIYAAPFAKKK as substrate measured after 40 mins in presence of [gamma33P]ATP by scintillation counting method
# [5] = tested on: PI3-kinase p110-alpha/p85-alpha (Homo sapiens), P27986+P42336 [E542K]; assay: Inhibition of recombinant full-length human PI3K p110alpha/p85alpha E542K mutant assessed as residual activity at 10 uM using phosphatidylinositol-4, 5-bisphosphate as substrate measured after 40 mins by fluorescence assay; type: protein-complex assay
# [6] = target: Insulin receptor (Homo sapiens) (UniProt P06213); assay: Inhibition of recombinant human IR (1005 to 1310 residues) assessed as residual activity at 10 uM using KKSRGDYMTMQIG as substrate measured after 40 mins in presence of [gamma33P]ATP by scintillation counting method
# [7] = target: Homeodomain-interacting protein kinase 4 (Homo sapiens) (UniProt Q8NE63); assay: Inhibition of recombinant full-length human HIPK4 assessed as residual activity at 10 uM using RRRFRPASPLRGPPK as substrate measured after 40 mins in presence of [gamma33P]ATP by scintillation counting method
# [8] = target: Cyclin-dependent kinase 5/CDK5 activator 1 (Homo sapiens) (UniProt Q00535+Q15078); assay: Inhibition of recombinant full-length human CDK5/p35 assessed as residual activity at 10 uM using histone H1 as substrate measured after 40 mins in presence of [gamma33P]ATP by scintillation counting method; type: protein-complex assay
# [9] = target: NUAK family SNF1-like kinase 1 (Homo sapiens) (UniProt O60285); assay: Inhibition of recombinant human ARK5 (2 to end residues) assessed as residual activity at 10 uM using KKKVSRSGLYRSPSMPENLNRPR as substrate measured after 40 mins in presence of [gamma33P]ATP by scintillation counting method
# [10] = target: Serine/threonine-protein kinase MRCK beta (Homo sapiens) (UniProt Q9Y5S2); assay: Inhibition of recombinant human MRCKbeta (1 to 473 residues) assessed as residual activity at 10 uM using KKRNRTLTV as substrate measured after 40 mins in presence of [gamma33P]ATP by scintillation counting method
# [11] = target: Protein-tyrosine kinase 2-beta (Homo sapiens) (UniProt Q14289); assay: Inhibition of recombinant full-length human Pyk2 assessed as residual activity at 10 uM using poly(Glu, Tyr) 4:1 as substrate measured after 40 mins in presence of [gamma33P]ATP by scintillation counting method
# [12] = target: Fibroblast growth factor receptor 1 (Homo sapiens) (UniProt P11362); assay: Inhibition of recombinant human FGFR1 (456 to 765 residues) assessed as residual activity at 10 uM using KKKSPGEYVNIEFG as substrate measured after 40 mins in presence of [gamma33P]ATP by scintillation counting method
# [13] = target: 5'-AMP-activated protein kinase catalytic subunit alpha-1 (Homo sapiens) (UniProt Q13131); assay: Inhibition of recombinant full-length human AMPKalpha1 assessed as residual activity at 10 uM using AMARAASAAALARRR as substrate measured after 40 mins in presence of [gamma33P]ATP by scintillation counting method
# [14] = target: Mitogen-activated protein kinase kinase kinase 20 (Homo sapiens) (UniProt Q9NYL2); assay: Inhibition of recombinant full-length human ZAK assessed as residual activity at 10 uM using MBP as substrate measured after 40 mins in presence of [gamma33P]ATP by scintillation counting method
# [15] = target: Myosin light chain kinase, smooth muscle (Homo sapiens) (UniProt Q15746); assay: Inhibition of recombinant human MLCK (1425 to 1771 residues) assessed as residual activity at 10 uM using calmodulin as substrate measured after 40 mins in presence of [gamma33P]ATP by scintillation counting method
# [16] = target: Cyclin-dependent kinase-like 4 (Homo sapiens) (UniProt Q5MAI5); assay: Inhibition of human CDKL4 assessed as residual activity at 10 uM by radiometric method
# [17] = target: Ribosomal protein S6 kinase alpha-2 (Homo sapiens) (UniProt Q15349); assay: Inhibition of recombinant full-length human Rsk3 assessed as residual activity at 10 uM using KKKNRTLSVA as substrate measured after 40 mins in presence of [gamma33P]ATP by scintillation counting method
# [18] = tested on: PI3-kinase p110-alpha/p85-alpha (Homo sapiens), P27986+P42336 [E545K]; assay: Inhibition of recombinant full-length human PI3K p110alpha/p85alpha E545K mutant assessed as residual activity at 10 uM using phosphatidylinositol-4, 5-bisphosphate as substrate measured after 40 mins by fluorescence assay; type: protein-complex assay
# [19] = target: Calcium/calmodulin-dependent protein kinase kinase 1 (Homo sapiens) (UniProt Q8N5S9); assay: Inhibition of recombinant full-length human CAMKk1 assessed as residual activity at 10 uM using calmodulin as substrate measured after 40 mins in presence of [gamma33P]ATP by scintillation counting method
# [20] = tested on: Tyrosine-protein kinase ABL1 (Homo sapiens), P00519 [T315I]; assay: Inhibition of recombinant human ABL T315I mutant (27 to end residues) assessed as residual activity at 10 uM using EAIYAAPFAKKK as substrate measured after 40 mins in presence of [gamma33P]ATP by scintillation counting method
# [21] = tested on: Mast/stem cell growth factor receptor Kit (Homo sapiens), P10721 [V654A]; assay: Inhibition of recombinant human c-Kit V654A mutant (544 to end residues) assessed as residual activity at 10 uM using GGMEDIYFEFMGGKKK as substrate measured after 40 mins in presence of [gamma33P]ATP by scintillation counting method
# [22] = target: Calcium/calmodulin-dependent protein kinase type 1B (Homo sapiens) (UniProt Q6P2M8); assay: Inhibition of recombinant full-length human CaMK1beta assessed as residual activity at 10 uM using calmodulin as substrate measured after 40 mins in presence of [gamma33P]ATP by scintillation counting method
# Calcium/calmodulin-dependent protein kinase type 1B (Homo sapiens), sequence (Q6P2M8 whole entry): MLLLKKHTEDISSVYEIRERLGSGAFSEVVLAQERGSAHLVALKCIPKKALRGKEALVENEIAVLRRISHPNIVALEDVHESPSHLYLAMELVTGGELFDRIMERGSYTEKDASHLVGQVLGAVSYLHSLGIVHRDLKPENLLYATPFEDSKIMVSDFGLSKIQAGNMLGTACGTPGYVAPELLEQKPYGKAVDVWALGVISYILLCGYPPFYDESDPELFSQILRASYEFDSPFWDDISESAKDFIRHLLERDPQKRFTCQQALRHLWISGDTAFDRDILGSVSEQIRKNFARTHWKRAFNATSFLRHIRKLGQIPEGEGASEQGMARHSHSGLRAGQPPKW
# Cyclin-dependent kinase-like 4 (Homo sapiens), sequence (Q5MAI5 whole entry): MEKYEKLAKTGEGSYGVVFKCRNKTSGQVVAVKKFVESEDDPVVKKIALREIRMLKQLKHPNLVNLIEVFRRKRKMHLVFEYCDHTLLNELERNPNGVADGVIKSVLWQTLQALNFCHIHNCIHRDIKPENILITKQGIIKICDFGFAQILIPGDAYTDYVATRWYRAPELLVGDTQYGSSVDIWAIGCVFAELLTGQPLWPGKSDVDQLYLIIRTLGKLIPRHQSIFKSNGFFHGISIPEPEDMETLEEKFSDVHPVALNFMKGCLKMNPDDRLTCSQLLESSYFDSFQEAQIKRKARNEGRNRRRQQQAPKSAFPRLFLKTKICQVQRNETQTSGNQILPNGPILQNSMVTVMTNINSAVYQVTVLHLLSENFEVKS
# Mitogen-activated protein kinase kinase kinase 20 (Homo sapiens), sequence (Q9NYL2 2-800 limits assumed): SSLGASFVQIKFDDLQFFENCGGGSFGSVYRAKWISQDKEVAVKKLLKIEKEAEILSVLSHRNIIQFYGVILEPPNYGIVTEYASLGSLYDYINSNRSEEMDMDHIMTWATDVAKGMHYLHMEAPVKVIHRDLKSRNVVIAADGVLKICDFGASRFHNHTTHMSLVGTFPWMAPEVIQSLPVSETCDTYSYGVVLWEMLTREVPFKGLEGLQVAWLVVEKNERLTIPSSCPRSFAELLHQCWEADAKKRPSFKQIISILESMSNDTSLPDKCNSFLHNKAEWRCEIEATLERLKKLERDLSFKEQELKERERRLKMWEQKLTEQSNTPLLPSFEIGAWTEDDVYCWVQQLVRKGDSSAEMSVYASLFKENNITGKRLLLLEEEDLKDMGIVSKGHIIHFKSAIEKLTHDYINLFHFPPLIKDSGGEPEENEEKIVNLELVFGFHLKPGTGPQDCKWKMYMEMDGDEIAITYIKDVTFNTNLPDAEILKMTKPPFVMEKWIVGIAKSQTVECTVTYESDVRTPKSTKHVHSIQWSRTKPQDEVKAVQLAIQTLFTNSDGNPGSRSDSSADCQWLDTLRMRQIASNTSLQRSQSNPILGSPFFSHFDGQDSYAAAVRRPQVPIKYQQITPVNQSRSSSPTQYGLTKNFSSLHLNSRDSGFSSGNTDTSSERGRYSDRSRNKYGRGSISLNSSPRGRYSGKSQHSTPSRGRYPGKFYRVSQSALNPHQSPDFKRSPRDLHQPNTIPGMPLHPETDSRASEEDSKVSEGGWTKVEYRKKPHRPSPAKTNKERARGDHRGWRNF
# Mast/stem cell growth factor receptor Kit (Homo sapiens), P10721 [V654A], sequence (P10721 whole entry V654A): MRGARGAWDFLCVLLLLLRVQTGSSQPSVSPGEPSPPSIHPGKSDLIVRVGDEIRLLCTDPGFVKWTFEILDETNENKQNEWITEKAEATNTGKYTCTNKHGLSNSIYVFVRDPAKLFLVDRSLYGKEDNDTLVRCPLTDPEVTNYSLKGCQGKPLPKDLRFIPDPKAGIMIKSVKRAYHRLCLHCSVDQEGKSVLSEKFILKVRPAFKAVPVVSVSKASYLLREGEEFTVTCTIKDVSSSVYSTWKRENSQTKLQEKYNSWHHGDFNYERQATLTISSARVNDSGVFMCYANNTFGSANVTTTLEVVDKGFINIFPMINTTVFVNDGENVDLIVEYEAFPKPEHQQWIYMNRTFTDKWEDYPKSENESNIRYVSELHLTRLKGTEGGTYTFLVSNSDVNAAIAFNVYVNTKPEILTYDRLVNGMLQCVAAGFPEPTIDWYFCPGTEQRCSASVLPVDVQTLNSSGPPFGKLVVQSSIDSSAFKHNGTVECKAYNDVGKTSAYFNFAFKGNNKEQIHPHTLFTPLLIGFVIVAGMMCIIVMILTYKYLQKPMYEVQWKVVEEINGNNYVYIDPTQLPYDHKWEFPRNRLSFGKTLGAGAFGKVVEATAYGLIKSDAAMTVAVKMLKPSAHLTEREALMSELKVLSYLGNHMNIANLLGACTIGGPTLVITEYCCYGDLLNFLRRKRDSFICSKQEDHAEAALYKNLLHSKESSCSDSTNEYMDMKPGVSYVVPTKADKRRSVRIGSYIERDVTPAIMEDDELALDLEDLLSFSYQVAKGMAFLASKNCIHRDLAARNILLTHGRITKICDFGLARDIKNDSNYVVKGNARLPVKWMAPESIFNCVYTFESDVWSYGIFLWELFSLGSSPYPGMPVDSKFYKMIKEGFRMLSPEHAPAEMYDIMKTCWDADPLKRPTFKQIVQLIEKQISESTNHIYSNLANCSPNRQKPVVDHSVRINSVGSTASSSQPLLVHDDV
# Myosin light chain kinase, smooth muscle (Homo sapiens), sequence (Q15746 whole entry, the tested form may be a part): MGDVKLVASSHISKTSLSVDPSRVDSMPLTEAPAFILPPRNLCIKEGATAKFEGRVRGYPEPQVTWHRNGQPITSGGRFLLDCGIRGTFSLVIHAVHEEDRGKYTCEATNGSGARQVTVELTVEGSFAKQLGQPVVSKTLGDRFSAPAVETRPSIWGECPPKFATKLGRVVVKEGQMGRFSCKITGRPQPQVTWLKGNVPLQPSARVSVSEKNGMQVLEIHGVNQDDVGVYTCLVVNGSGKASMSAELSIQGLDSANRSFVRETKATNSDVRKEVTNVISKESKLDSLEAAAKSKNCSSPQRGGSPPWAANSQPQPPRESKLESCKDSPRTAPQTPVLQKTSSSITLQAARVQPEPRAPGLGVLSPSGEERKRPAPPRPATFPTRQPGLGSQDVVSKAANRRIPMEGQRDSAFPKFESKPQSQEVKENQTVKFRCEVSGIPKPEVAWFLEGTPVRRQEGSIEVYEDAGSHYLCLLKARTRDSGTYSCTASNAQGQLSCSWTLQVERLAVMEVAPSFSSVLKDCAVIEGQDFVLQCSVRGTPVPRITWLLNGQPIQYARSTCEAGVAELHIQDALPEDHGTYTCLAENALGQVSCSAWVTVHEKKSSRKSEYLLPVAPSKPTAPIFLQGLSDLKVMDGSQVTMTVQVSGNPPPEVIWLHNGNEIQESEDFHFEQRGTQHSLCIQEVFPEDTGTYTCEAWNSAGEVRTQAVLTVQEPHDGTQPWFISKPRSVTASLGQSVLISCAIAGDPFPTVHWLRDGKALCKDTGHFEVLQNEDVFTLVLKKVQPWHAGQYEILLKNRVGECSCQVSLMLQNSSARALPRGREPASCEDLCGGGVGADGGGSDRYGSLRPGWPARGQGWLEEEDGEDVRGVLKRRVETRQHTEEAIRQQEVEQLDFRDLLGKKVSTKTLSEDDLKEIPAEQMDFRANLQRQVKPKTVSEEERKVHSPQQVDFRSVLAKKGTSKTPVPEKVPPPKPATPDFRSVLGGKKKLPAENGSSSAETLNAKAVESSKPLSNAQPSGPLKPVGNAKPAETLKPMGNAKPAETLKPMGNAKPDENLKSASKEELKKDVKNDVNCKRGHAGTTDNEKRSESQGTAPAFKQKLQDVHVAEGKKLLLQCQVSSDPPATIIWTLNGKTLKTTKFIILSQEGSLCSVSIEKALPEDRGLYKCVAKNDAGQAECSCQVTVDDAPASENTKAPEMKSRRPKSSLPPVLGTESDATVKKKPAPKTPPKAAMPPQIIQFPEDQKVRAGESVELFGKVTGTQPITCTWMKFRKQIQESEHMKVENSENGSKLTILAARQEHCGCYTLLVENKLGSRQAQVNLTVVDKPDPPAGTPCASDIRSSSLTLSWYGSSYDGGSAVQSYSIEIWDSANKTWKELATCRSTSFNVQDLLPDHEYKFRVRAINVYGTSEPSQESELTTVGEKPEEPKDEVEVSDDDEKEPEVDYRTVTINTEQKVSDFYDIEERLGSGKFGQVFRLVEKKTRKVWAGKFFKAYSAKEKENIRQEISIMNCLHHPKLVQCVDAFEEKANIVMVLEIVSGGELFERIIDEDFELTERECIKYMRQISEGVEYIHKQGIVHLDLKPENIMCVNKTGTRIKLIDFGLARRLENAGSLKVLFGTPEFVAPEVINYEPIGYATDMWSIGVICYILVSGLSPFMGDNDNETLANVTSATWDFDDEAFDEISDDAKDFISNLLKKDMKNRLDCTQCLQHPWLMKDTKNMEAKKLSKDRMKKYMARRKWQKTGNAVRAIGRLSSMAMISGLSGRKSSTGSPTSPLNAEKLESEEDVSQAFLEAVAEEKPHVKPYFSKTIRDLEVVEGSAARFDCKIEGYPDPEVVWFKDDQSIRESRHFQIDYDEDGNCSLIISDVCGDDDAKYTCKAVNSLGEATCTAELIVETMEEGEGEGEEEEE
# Eukaryotic translation initiation factor 2-alpha kinase 1 (Homo sapiens), sequence (Q9BQI3 whole entry): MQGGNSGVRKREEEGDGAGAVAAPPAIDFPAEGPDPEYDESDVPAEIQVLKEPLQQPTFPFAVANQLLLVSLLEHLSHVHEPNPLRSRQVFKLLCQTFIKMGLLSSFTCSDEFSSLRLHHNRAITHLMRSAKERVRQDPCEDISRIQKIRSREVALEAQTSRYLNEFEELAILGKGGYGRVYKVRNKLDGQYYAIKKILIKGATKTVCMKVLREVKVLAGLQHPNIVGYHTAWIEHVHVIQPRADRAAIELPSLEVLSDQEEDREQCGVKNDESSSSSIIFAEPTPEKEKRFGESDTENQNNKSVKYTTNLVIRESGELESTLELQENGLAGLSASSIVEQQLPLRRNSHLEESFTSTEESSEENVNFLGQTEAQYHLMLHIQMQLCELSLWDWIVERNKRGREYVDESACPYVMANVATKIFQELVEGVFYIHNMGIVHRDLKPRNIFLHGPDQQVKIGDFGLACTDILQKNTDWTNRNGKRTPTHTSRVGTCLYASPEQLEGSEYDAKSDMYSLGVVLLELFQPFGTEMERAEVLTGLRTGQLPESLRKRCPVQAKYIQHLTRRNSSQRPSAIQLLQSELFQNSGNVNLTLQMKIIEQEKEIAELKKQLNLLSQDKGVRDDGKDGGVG
compound,measurement,setting,value
Cc1cc(C)c(CNc2nc(Cl)nc3c2ncn3C2CCCC2)c(=O)[nH]1,Activity,[1],102%
same,Activity,[2],106%
same,Activity,[3],110%
same,Activity,[4],85.5%
same,Activity,[5],97.5%
same,Activity,[6],116%
same,Activity,[7],110%
same,Activity,[8],108%
same,Activity,[9],108%
same,Activity,[10],112%
same,Activity,[11],97%
same,Activity,[12],108%
same,Activity,[13],120%
same,Activity,[14],97%
same,Activity,[15],94%
same,Activity,[16],116%
same,Activity,[17],114%
same,Activity,[18],93.5%
same,Activity,[19],102%
same,Activity,[20],108%
same,Activity,[21],90%
same,Activity,[22],107%
